Measurements published in publication PMC11096368, “Transcriptomic signature, bioactivity and safety of a non-hepatotoxic analgesic generating AM404 in the midbrain PAG region” (Scientific Reports, 2024).
Like-named read-outs stand apart in the source and are kept apart here.

Columns and labels:
Type in all cases: in vivo
[1] = system: liver of CD1 mice; assay: Hepatotoxicity at 600 mg/kg: nitrotyrosine, ZO-1 tight junctions, TUNEL, liver function tests; settings: 15 out of 20 ApAP treated animals; data not shown
[2] = system: CD1 or C57BL/6 mice; assay: Acetic acid-induced abdominal writhing assay (visceral pain); settings: for ED50: Mus musculus, equimolar dosing; for Analgesia in acetic acid-induced writhing assay: high dose (100 mg/kg), all experimental cohorts
Excerpt: The investigators were blinded till the completion of all the experiments. To ensure objectivity, investigators were blinded for the acetic acid and tail flick experiments. In the CFA/von Frey and Hargreaves assays, one investigator did the drug pre-treatments, and another investigator at another location who was not aware of the treatments conducted the behavioral testing. Moreover, these studies used the eVF device that electronically registers the grams of force necessary to elicit paw withdrawal, eliminating bias that confounded older versions of this test in which an investigator used a series of individual von Frey microfilaments to determine paw withdrawal thresholds. Six separate experimenters were involved in the data acquisition for behavioral testing, and another separate investigator performed all the statistical analyses using GraphPad Prism Version 9.1.2. Statistical significance was determined by p < 0.05; one-way ANOVA followed by Sidak’s multiple comparisons post hoc test. Mixed-gender experiments were powered to test for gender effects, and different ages of rodents were also included for the experiments – young (2 months) and aged (20 months) to tease out whether there are any effects of age-related changes in nociceptive sensitivity under naïve, and inflammatory pre-clinical rodent pain models. For the aged rats and mice, we could only obtain male Sprague–Dawley rats and male C57BL/6 mice of 20 months old from all commercial animal vendors and from the National Institute of Aging (NIA). So, only these rodents were used for the older animal experimental cohort. Old female rats and mice were not available at the time when these experiments were conducted. For ED50 calculation, dose–response curves were calculated with regression analysis and log transformation using GraphPad Prism 9.1.2.
In this model of visceral pain, abdominal contraction (writhing), in which contraction of the abdominal muscles and stretching of the hind limbs is induced in mice in response to an ip injection of 0.4% acetic acid at a dose of 10 mL/kg 25 min after drug administration, is assessed. Specifically, the number of writhes is counted for 10 min, beginning 5 min after acetic acid injection. […] CD1 (young male and female) or C57BL/6 (aged male) mice were used. For the abdominal writhing assays, we used n = 35 aged male mice, n = 70 young male mice, and n = 70 young female mice.

[3] = system: Sprague–Dawley rats; assay: CFA-induced inflammatory pain / Hargreaves thermal sensitivity assay; settings: high dose (100 mg/kg)
Excerpt: In these same cohorts of animals, we simultaneously measured their thermal nociception to hyperalgesia with the Hargreaves test using the plantar test apparatus (Ugo Basile 37,570). In this experimental setup, the rodents are placed in plastic cages on top of a glass surface, and their hind paws are subjected to an infrared heat stimulus. One hind paw at a time is stimulated with the light source (noxious stimuli) until the animal retracts the paw from the glass surface because of the stimulus. Baseline withdrawal thresholds (latency) of both the right and left paws were recorded, and animals were assigned to different treatment groups so that each group had approximately equal withdrawal threshold averages in both paws. After baseline testing, treated animals received subcutaneous plantar injection (150 μl) of 50% CFA into the left hind paw, while control animals received a plantar injection (150 µl) of 0.9% NaCl into their left hind paw. CFA induces inflammation, resulting in a left hind paw that is hypersensitive to the thermal stimulus, while the right hind paw serves as a within-subject baseline for each animal. To obtain Hargreaves withdrawal latency recordings, each animal was placed in an individual plastic observation compartment on a glass platform, which provided access to the plantar surface of the hind paws from underneath. After acclimation to the environment for 30 min, thermal hypersensitivity was assessed by stimulating the mid-plantar area of each hind paw with a bright light source attached to the meter (Ugo Basile 37,570) until animals withdrew the paw from the surface. The withdrawal threshold was defined as the average time (s) required for the rat to withdraw the stimulated paw. A brisk withdrawal of the paw (often followed by a sustained retraction and/or licking) was considered a positive response, but paw withdrawals due to locomotion or weight shifting were not counted. The Hargreaves studies were conducted with the plantar stimulation device that automatically registers the time (s) necessary to elicit paw withdrawal in order to eliminate bias in determining paw withdrawal thresholds. A cutoff of 20 s is pre-programmed so that the light source shuts off at that maximal period so as to not induce any burns on the plantar surface of the rodents. The Hargreaves test permits measurement of ipsilateral and contralateral heat thresholds, allowing each animal to serve as its own internal control in unilateral pain models. In addition, the Hargreaves test enables quantification of heat thresholds in unrestrained animals, reducing the likelihood of stress-induced responses.

[4] = system: male CD1 mice; assay: Baker yeast-induced hyperthermia antipyresis assay; settings: 75 mg/kg per os, n = 10
Experimental: Antipyresis experiments were carried out with n = 60 CD-1 male mice weighing between 45 and 50 g. All mice were kept in a 12-h day/12-h night cycle with free access to food and water ad libitum. After habituating and acclimating the mice for a week, each mouse was briefly anesthetized for 1 min with 1% isoflurane and implanted subcutaneously a transmitter probe that records core body temperature – Implantable Programmable Temperature Transponder (IPTT-300) by Bio Medic Data Systems (BMDS), DE, USA. The mice were allowed to recover for at least one week from the surgery before any recordings were made and observed in their home cages prior to pyrogen challenge for inducing fever. Temperatures were recorded using the BMDS DAS-8027-IUS data reading system.
15% yeast, 0.1 mL/kg (MilliporeSigma, Billerica, MA, USA) was used to induce fever. All animals used in this assay were male CD1 mice, which were fasted overnight (15 h) before the start of the assay.
Mice received either yeast in 0.9% saline (sterile) (vehicle) or just 0.9% saline as an ip injection. […] All mice that didn’t show a significant change in body temperature or appeared sick post-pyrogen challenge were excluded (n = 5) from subsequent drug administrations.
All drugs and vehicle (10% DMSO: 10% labrasol :80% PEG400) were administered by oral gavage, PO administration. Each dosing volume was ~ 0.3–0.4 mL per mouse. […]

[5] = read-out: ED50 Acetic acid writhing Assay (Mice), Aged (Male)
[6] = read-out: ED50 Acetic acid writhing Assay (Mice), Young (Female)
[7] = read-out: ED50 Acetic acid writhing Assay (Mice), Young (Male)
[8] = young male and young female rats

Compound | Animals dead in 48 h [1] | ED50 [2, 5] [µmol/kg] | ED50 [2, 6] [µmol/kg] | ED50 [2, 7] [µmol/kg] | Analgesia in acetic acid-induced writhing assay [2] | Analgesia in Hargreaves assay (paw withdrawal latencies) ([3]; aged male rats) | Analgesia in Hargreaves assay (paw withdrawal latencies) [3, 8] | Antipyresis, yeast fever (core body temperature) [4]
CCN(CC)C(=O)c1ccccc1S(=O)(=O)NCC(=O)Nc1ccc(O)cc1 [SRP-001, N,N-diethyl-2-[[2-(4-hydroxyanilino)-2-oxo-ethyl]sulfamoyl]benzamide] | none | 22.1 | 237 | 31.1 | significant analgesia | significant analgesia | significant analgesia | subsequent reduction in core body temperature
CC(=O)Nc1ccc(O)cc1 [ApAP, acetaminophen, reference compound] | 75% | 71.6 | 661 | 75.8 | significant analgesia | significant analgesia | significant analgesia | subsequent reduction in core body temperature
